The test concerns the target T1, BTK protein (Homo sapiens, UniProt Q06187).
T1 construct: endogenous in cells; host or cells: TMD-8 cells
Briefly: Measurement of BTK protein degradation ability in TMD-8 cells (Western blotting). The settings on record: harvested after 24 hours; for BTK degradation (%) 1 nM: compound 1 nM; for BTK degradation (%) 10 nM: compound 10 nM; for BTK degradation (%) 100 nM: compound 100 nM. It is filed as cell-based. In a few lines:
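TMD-8 cells (1×10^6/mL) were treated for 24 h with compound at 0.1, 1, 10 μM or 0.0001–0.1 μM, with DMSO as vehicle control. RIPA lysates were normalized by BCA assay. BTK was detected by Western blot with anti-BTK, using GAPDH or β-actin as loading controls, and imaged on LI-COR Odyssey.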

Structures are written as SMILES.

T1 sequence (Q06187 whole entry): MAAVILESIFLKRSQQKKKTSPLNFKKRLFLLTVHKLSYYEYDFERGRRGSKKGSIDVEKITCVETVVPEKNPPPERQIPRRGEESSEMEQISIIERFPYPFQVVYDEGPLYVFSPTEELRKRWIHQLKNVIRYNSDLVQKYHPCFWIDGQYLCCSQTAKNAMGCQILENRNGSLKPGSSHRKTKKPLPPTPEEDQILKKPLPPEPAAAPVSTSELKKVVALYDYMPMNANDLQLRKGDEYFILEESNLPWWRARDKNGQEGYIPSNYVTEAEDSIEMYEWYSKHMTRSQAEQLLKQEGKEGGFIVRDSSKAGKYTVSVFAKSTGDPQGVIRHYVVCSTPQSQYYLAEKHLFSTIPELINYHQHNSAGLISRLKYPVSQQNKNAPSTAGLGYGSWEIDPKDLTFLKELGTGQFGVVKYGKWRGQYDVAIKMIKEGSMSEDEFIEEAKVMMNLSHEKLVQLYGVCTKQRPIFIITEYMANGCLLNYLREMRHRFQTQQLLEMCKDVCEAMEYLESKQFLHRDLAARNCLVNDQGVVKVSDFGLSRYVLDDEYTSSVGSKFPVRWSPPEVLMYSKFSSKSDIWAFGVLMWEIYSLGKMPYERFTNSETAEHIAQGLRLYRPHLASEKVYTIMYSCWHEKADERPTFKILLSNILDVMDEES

For the molecule `Cc1cc(-c2ccnc(Nc3ccc(C4CCN(CC5CCN(c6cccc(N7CCC(=O)NC7=O)c6)CC5)CC4)cc3)n2)ccc1CNC(=O)c1cnn(C(C)C)c1` [Example 84, N-(4-(2-((4-(1-((1-(3-(2,4-dioxotetrahydropyrimidin-1 (2H)-yl)phenyl)piperidin-4-yl)methyl)piperidin-4-yl)phenyl)amino)pyrimidin-4-yl)-2-methylbenzyl)-1-isopropyl-1H-pyrazole-4-carboxamide], the “BTK degradation (%) 1 nM” value came out at 36.0%, the “BTK degradation (%) 10 nM” value was 92.0% and the “BTK degradation (%) 100 nM” value came to 99.0%.

In the case of `Cc1cc(-c2ccnc(Nc3ccc(C4CCN(CC5CCN(c6cccc(N7CCC(=O)NC7=O)c6)CC5)CC4)cc3)n2)ccc1CNC(=O)c1cnn(C(C)(C)C)c1` [Example 85, 1-(tert-butyl)-N-(4-(2-((4-(1-((1-(3-(2,4-dioxotetrahydropyrimidin-1 (2H)-yl)phenyl)piperidin-4-yl)methyl)piperidin-4-yl)phenyl)amino)pyrimidin-4-yl)-2-methylbenzyl)-1H-pyrazole-4-carboxamide], the “BTK degradation (%) 1 nM” value is on record as 45.5%, the “BTK degradation (%) 10 nM” value is reported as 93.5% and the “BTK degradation (%) 100 nM” value was determined as 98.5%.

On to `COc1ccc(C(=O)N2CCC(CN3CCN(c4ccc(Nc5nccc(-c6ccc(CNC(=O)N7CC(OC(C)C)C7)c(C)c6)n5)cc4)CC3)CC2)cc1N1CCC(=O)NC1=O` [Example 86, N-(4-(2-((4-(4-((1-(3-(2,4-dioxotetrahydropyrimidin-1 (2H)-yl)-4-methoxybenzoyl)piperidin-4-yl)methyl)piperazin-1-yl)phenyl)amino)pyrimidin-4-yl)-2-methylbenzyl)-3-isopropoxyazetidine-1-carboxamide], for which the “BTK degradation (%) 1 nM” value is 22%, the “BTK degradation (%) 10 nM” value is recorded as 90% and the “BTK degradation (%) 100 nM” value worked out at 97.5%.

For `Cc1cc(-c2ccnc(Nc3ccc(N4CCN(CC5CCN(C(=O)c6cccc(NC7CCC(=O)NC7=O)c6)CC5)CC4)cc3)n2)ccc1CNC(=O)N1CC(OC(C)C)C1` (stereo not drawn) [Example 87, N-(4-(2-((4-(4-((1-(3-((2,6-dioxopiperidin-3-yl)amino)benzoyl)piperidin-4-yl)methyl)piperazin-1-yl)phenyl)amino)pyrimidin-4-yl)-2-methylbenzyl)-3-isopropoxyazetidine-1-carboxamide], the “BTK degradation (%) 1 nM” value was found to be 36.5%, the “BTK degradation (%) 10 nM” value was 94.5% and the “BTK degradation (%) 100 nM” value is on record as 98.5%.

With `Cc1cc(-c2ccnc(Nc3ccc(N4CCN(CC5CN(C(=O)c6cccc(NC7CCC(=O)NC7=O)c6)C5)CC4)cc3)n2)ccc1CNC(=O)N1CC(OC(C)C)C1` (stereo not drawn) [Example 88, N-(4-(2-((4-(4-((1-(3-((2,6-dioxopiperidin-3-yl)amino)benzoyl)azetidin-3-yl)methyl)piperazin-1-yl)phenyl)amino)pyrimidin-4-yl)-2-methylbenzyl)-3-isopropoxyazetidine-1-carboxamide], the “BTK degradation (%) 1 nM” value is 35.5%, the “BTK degradation (%) 10 nM” value is listed as 94.5% and the “BTK degradation (%) 100 nM” value is on record as 98.5%.

As for `Cc1cc(-c2ccnc(Nc3ccc(N4CCN(CC5CCN(C(=O)c6cccc(N7CCC(=O)NC7=O)c6)CC5)CC4)cc3)n2)ccc1CNC(=O)N1CC(OC(C)C)C1` [Example 89, N-(4-(2-((4-(4-((1-(3-(2,4-dioxotetrahydropyrimidin-1 (2H)-yl)benzoyl)piperidin-4-yl)methyl)piperazin-1-yl)phenyl)amino)pyrimidin-4-yl)-2-methylbenzyl)-3-isopropoxyazetidine-1-carboxamide], the “BTK degradation (%) 1 nM” value was −0.5%, the “BTK degradation (%) 10 nM” value was 33% and the “BTK degradation (%) 100 nM” value worked out at 87%.

With `COc1ccc(C(=O)N2CCC(CN3CCN(c4ccc(Nc5nccc(-c6cc(F)cc(NC(=O)N7CC(OC(C)C)C7)c6C)n5)cc4)CC3)CC2)cc1N1CCC(=O)NC1=O` [Example 90, N-(3-(2-((4-(4-((1-(3-(2,4-dioxotetrahydropyrimidin-1 (2H)-yl)-4-methoxybenzoyl)piperidin-4-yl)methyl)piperazin-1-yl)phenyl)amino)pyrimidin-4-yl)-5-fluoro-2-methylphenyl)-3-isopropoxyazetidine-1-carboxamide], the “BTK degradation (%) 1 nM” value turned out to be 4%, the “BTK degradation (%) 10 nM” value stood at 10% and the “BTK degradation (%) 100 nM” value was 37.5%.

Consider `Cc1cc(-c2ccnc(Nc3cnn(C4CCN(CC5CCN(C(=O)c6cccc(NC7CCC(=O)NC7=O)c6)CC5)CC4)c3)n2)ccc1CNC(=O)N1CC(OC(C)C)C1` (stereo not drawn) [Example 91, N-(4-(2-((1-(1-((1-(3-((2,6-dioxopiperidin-3-yl)amino)benzoyl)piperidin-4-yl)methyl)piperidin-4-yl)-1H-pyrazol-4-yl)amino)pyrimidin-4-yl)-2-methylbenzyl)-3-isopropoxyazetidine-1-carboxamide], for which the “BTK degradation (%) 1 nM” value is 4.5%, the “BTK degradation (%) 10 nM” value is 68.5% and the “BTK degradation (%) 100 nM” value is listed as 95.0%.

Consider `Cc1cc(-c2ccnc(Nc3cnn(C4CCN(CC5CN(C(=O)c6cccc(NC7CCC(=O)NC7=O)c6)C5)CC4)c3)n2)ccc1CNC(=O)N1CC(OC(C)C)C1` (stereo not drawn) [Example 92, N-(4-(2-((1-(1-((1-(3-((2,6-dioxopiperidin-3-yl)amino)benzoyl)azetidin-3-yl)methyl)piperidin-4-yl)-1H-pyrazol-4-yl)amino)pyrimidin-4-yl)-2-methylbenzyl)-3-isopropoxyazetidine-1-carboxamide], for which the “BTK degradation (%) 1 nM” value is 7.0%, the “BTK degradation (%) 10 nM” value is 33.5% and the “BTK degradation (%) 100 nM” value was 89.0%.

For `Cc1cc(-c2ccnc(Nc3ccc(N4CCN(CC5CCN(C(=O)c6cccc(NC7CCC(=O)NC7=O)c6)CC5)CC4)cc3)n2)ccc1CNC(=O)c1cnn(C(C)C)c1` (stereo not drawn) [Example 93, N-(4-(2-((4-(4-((1-(3-((2,6-dioxopiperidin-3-yl)amino)benzoyl)piperidin-4-yl)methyl)piperazin-1-yl)phenyl)amino)pyrimidin-4-yl)-2-methylbenzyl)-1-isopropyl-1H-pyrazole-4-carboxamide], the “BTK degradation (%) 1 nM” value amounted to 62.0%, the “BTK degradation (%) 10 nM” value is reported as 94.5% and the “BTK degradation (%) 100 nM” value stood at 98.5%.

For `Cc1cc(-c2ccnc(Nc3ccc(N4CCN(CC5CN(C(=O)c6cccc(NC7CCC(=O)NC7=O)c6)C5)CC4)cc3)n2)ccc1CNC(=O)c1cnn(C(C)C)c1` (stereo not drawn) [Example 94, N-(4-(2-((4-(4-((1-(3-((2,6-dioxopiperidin-3-yl)amino)benzoyl)azetidin-3-yl)methyl)piperazin-1-yl)phenyl)amino)pyrimidin-4-yl)-2-methylbenzyl)-1-isopropyl-1H-pyrazole-4-carboxamide], the “BTK degradation (%) 1 nM” value was found to be 59.5%, the “BTK degradation (%) 10 nM” value was found to be 93.5% and the “BTK degradation (%) 100 nM” value stood at 98.5%.

Take `Cc1cc(-c2ccnc(Nc3ccc(N4CCN(CC5CCN(C(=O)c6cccc(NC7CCC(=O)NC7=O)c6)CC5)CC4)cc3)n2)ccc1CNC(=O)c1cnn(C(C)(C)C)c1` (stereo not drawn) [Example 95, 1-(tert-butyl)-N-(4-(2-((4-(4-((1-(3-((2,6-dioxopiperidin-3-yl)amino)benzoyl)piperidin-4-yl)methyl)piperazin-1-yl)phenyl)amino)pyrimidin-4-yl)-2-methylbenzyl)-1H-pyrazole-4-carboxamide]: the “BTK degradation (%) 1 nM” value came out at 67.5%, the “BTK degradation (%) 10 nM” value stood at 94.5% and the “BTK degradation (%) 100 nM” value was 98.0%.

For the origin of these results see patent US20250041429A1, “COMPOUND HAVING BTK PROTEIN DEGRADATION ACTIVITY, AND MEDICAL USES THEREOF” (UBIX THERAPEUTICS, INC., priority 2021, published 2025).
